Results as given in the NIST ThermoML archive (doi:10.1021/je8007588).
± gives the expanded uncertainty stated by the source.

Conditions: 298.15 K; 101.33 kPa; Liquid; Vibrating tube method

- mass density: 1123.6 ± 6.9 kg/m3
Compound: CCCCCC[N+](C)(C)CCO.F[B-](F)(F)F [hexyl(2-hydroxyethyl)dimethylammonium tetrafluoroborate]
